Assay results taken from patent US4873225A, “1-n-(4-amino-3-fluoro-2-hydroxybutyryl)-kanamycins” (Zaidan Hojin Biseibutsu Kagaku Kenkyu Kai, priority 1987, dated 1989).
Values after ≈ are worked out from the molar mass of the structure shown. Read-outs that look alike come from different tables or passages of the source.

Legend:
Assay in all cases: MIC, standard serial dilution method
Assay type in all cases: cell-based
Bacillus subtilis PCI219 = test system: Bacillus subtilis PCI219
Experimental: (§1) Antibacterial activities of each of the abovementioned compounds of the general formula (I) according to this invention were determined by measuring their minimum growth inhibitory concentrations (MIC, mcg/ml) against various bacteria in accordance with a standard serial dilution method. The pH condition of the incubation medium where the MIC data were measured was set at pH 7, unless otherwise specifically indicated. For the sake of comparison, the antibacterial spectra of 1-N-{(S)-4-amino-2-hydroxybutyryl}kanamycin A (i.e., amikacin) and 1-N-{(S)-4-amino-2-hydroxybutyryl}-3,4-dideoxykanamycin B (i.e., habekacin) were also measured in the same manner.

[1] = test system: Corynebacterium bovis 1810; conditions: Corynebacterium bovis, 1810, pH 7
Experimental: as §1

Escherichia coli JR 225 = conditions: JR225, pH 7
Experimental: as §1

[2] = test system: Escherichia coli K-12 LA 290 R55; conditions: K12LA290R55, pH 7
Experimental: as §1

[3] = test system: Escherichia coli K-12 ML 1629
Experimental: as §1

Escherichia coli K-12 = conditions: K12, pH 7
Experimental: as §1

[4] = test system: Klebsiella pneumoniae 22 #3038
Experimental: as §1

Mycobacterium 607 = conditions: Mycobacterium, 607, pH 7
Experimental: as §1

Proteus rettgeri GN 311 = conditions: Providencia rettgeri, GN311, pH 7
Experimental: as §1

Providencia sp. Pv 16 = test system: Providencia sp. Pv 16
Experimental: as §1

[5] = test system: Pseudomonas aeruginosa A3
Experimental: as §1

[6] = test system: Pseudomonas aeruginosa GN 315; conditions: GN315, pH 7
Experimental: as §1

Serratia marcescens = test system: Serratia marcescens
Experimental: as §1

[7] = test system: Staphylococcus aureus 209P
Experimental: as §1

[8] = test system: Staphylococcus aureus Ap01
Experimental: as §1

Escherichia coli K-12 R5 = conditions: K12R5, pH 7
Experimental: as §1
Infectious diseases by Escherichia coli K-12 R5 tend to increase in recent days. The compounds of this invention are therefore important for the therapeutic treatment of bacterial infections.

[9] = test system: Escherichia coli JR66/W677; conditions: for MIC: Escherichia coli; for antibacterial activity (MIC) at pH 6 as compared to pH 7: pH 6 vs pH 7
Experimental: as §1
(§2) (a) The antibacterial activities of the compounds of this invention are not decreased practically even under pH conditions of pH […] as compared to their antibacterial activities under neutral conditions of pH 7.

[10] = test system: Pseudomonas aeruginosa TI 13; conditions: for MIC: Pseudomonas aeruginosa; for antibacterial activity (MIC) at pH 6 as compared to pH 7: pH 6 vs pH 7
Experimental: as §1, §2

[11] = JR66/W677, measured at pH 6, read-out: MIC
[12] = TI13, measured at pH 6, read-out: MIC

NCC[C@H](O)C(=O)N[C@@H]1C[C@H](N)[C@@H](O[C@H]2O[C@H](CN)[C@@H](O)[C@H](O)[C@H]2O)[C@H](O)[C@H]1O[C@H]1O[C@H](CO)[C@@H](O)[C@H](N)[C@H]1O [Amikacin, 1-N-{(S)-4-amino-2-hydroxybutyryl}kanamycin A, reference compound]
MIC (Bacillus subtilis PCI219; PCI219, pH 7): 1.56 µg/mL (≈ 2.66 µM) | MIC [1]: 1.56 µg/mL (≈ 2.66 µM) | MIC (Escherichia coli JR 225): 0.78 µg/mL (≈ 1.33 µM) | MIC [2]: 1.56 µg/mL (≈ 2.66 µM) | MIC ([3]; K12ML1629, pH 7): 1.56 µg/mL (≈ 2.66 µM) | MIC (Escherichia coli K-12): 0.78 µg/mL (≈ 1.33 µM) | MIC ([4]; pH 7): 3.12 µg/mL (≈ 5.33 µM) | MIC (Mycobacterium 607): 1.56 µg/mL (≈ 2.66 µM) | MIC (Proteus rettgeri GN 311): 1.56 µg/mL (≈ 2.66 µM) | MIC (Providencia sp. Pv 16; SP.PV16, pH 7): 1.56 µg/mL (≈ 2.66 µM) | MIC ([5]; A3, pH 7): 1.56 µg/mL (≈ 2.66 µM) | MIC [6]: 25 µg/mL (≈ 42.7 µM) | MIC (Serratia marcescens; pH 7, read-out: MIC): 6.25 µg/mL (≈ 10.7 µM) | MIC ([7]; pH 7): 1.56 µg/mL (≈ 2.66 µM) | MIC ([8]; AP01, pH 7): 3.12 µg/mL (≈ 5.33 µM) | MIC (Escherichia coli K-12 R5): 25 µg/mL (≈ 42.7 µM) | MIC ([9]; JR66/W677, pH 7): 3.12 µg/mL (≈ 5.33 µM) | MIC [9, 11]: 25 µg/mL (≈ 42.7 µM) | antibacterial activity (MIC) at pH 6 as compared to pH 7 [9]: reduced considerably at pH 6 | MIC ([10]; TI13, pH 7): 3.12 µg/mL (≈ 5.33 µM) | MIC [10, 12]: 12.5 µg/mL (≈ 21.3 µM) | antibacterial activity (MIC) at pH 6 as compared to pH 7 [10]: reduced considerably at pH 6

NCC[C@H](O)C(=O)N[C@@H]1C[C@H](N)[C@@H](O[C@H]2O[C@H](CN)CC[C@H]2N)[C@H](O)[C@H]1O[C@H]1O[C@H](CO)[C@@H](O)[C@H](N)[C@H]1O [Habekacin, 1-N-{(S)-4-amino-2-hydroxybutyryl}-3,4-dideoxykanamycin B, reference compound]
MIC (Bacillus subtilis PCI219; PCI219, pH 7, read-out: MIC): < 0.2 µg/mL | MIC ([1]; read-out: MIC): 0.39 µg/mL (≈ 0.706 µM) | MIC (Escherichia coli JR 225): 0.78 µg/mL (≈ 1.41 µM) | MIC [2]: 0.78 µg/mL (≈ 1.41 µM) | MIC ([3]; K12ML1629, pH 7, read-out: MIC): 0.78 µg/mL (≈ 1.41 µM) | MIC (Escherichia coli K-12): 0.39 µg/mL (≈ 0.706 µM) | MIC ([4]; pH 7): 1.56 µg/mL (≈ 2.82 µM) | MIC (Mycobacterium 607; read-out: MIC): 0.39 µg/mL (≈ 0.706 µM) | MIC (Proteus rettgeri GN 311; read-out: MIC): 0.78 µg/mL (≈ 1.41 µM) | MIC (Providencia sp. Pv 16; SP.PV16, pH 7): 1.56 µg/mL (≈ 2.82 µM) | MIC ([5]; A3, pH 7, read-out: MIC): < 0.2 µg/mL | MIC [6]: 3.12 µg/mL (≈ 5.65 µM) | MIC (Serratia marcescens; pH 7): 12.5 µg/mL (≈ 22.6 µM) | MIC ([7]; pH 7, read-out: MIC): < 0.2 µg/mL | MIC ([8]; AP01, pH 7, read-out: MIC): 0.39 µg/mL (≈ 0.706 µM) | MIC (Escherichia coli K-12 R5): 25 µg/mL (≈ 45.2 µM) | MIC ([9]; JR66/W677, pH 6): 6.25 µg/mL (≈ 11.3 µM) | MIC ([9]; JR66/W677, pH 7, read-out: MIC): 0.78 µg/mL (≈ 1.41 µM) | antibacterial activity (MIC) at pH 6 as compared to pH 7 [9]: reduced considerably at pH 6 | MIC ([10]; TI13, pH 7, read-out: MIC): 0.78 µg/mL (≈ 1.41 µM) | MIC [10, 12]: 25 µg/mL (≈ 45.2 µM) | antibacterial activity (MIC) at pH 6 as compared to pH 7 [10]: reduced considerably at pH 6

NC[C@@H](F)[C@H](O)C(=O)N[C@@H]1C[C@H](N)[C@@H](O[C@H]2O[C@H](CN)[C@@H](O)[C@H](O)[C@H]2O)[C@H](O)[C@H]1O[C@H]1O[C@H](CO)[C@@H](O)[C@H](N)[C@H]1O [Invention Compound No. 1, 1-N-{(2R,3R)-4-Amino-3-fluoro-2-hydroxybutyryl}-kanamycin A]
MIC (Bacillus subtilis PCI219; PCI219, pH 7, read-out: MIC): 0.78 µg/mL (≈ 1.29 µM) | MIC ([1]; read-out: MIC): 0.78 µg/mL (≈ 1.29 µM) | MIC (Escherichia coli JR 225): 0.78 µg/mL (≈ 1.29 µM) | MIC [2]: 1.56 µg/mL (≈ 2.58 µM) | MIC ([3]; K12ML1629, pH 7, read-out: MIC): 1.56 µg/mL (≈ 2.58 µM) | MIC (Escherichia coli K-12): 0.39 µg/mL (≈ 0.646 µM) | MIC ([4]; pH 7, read-out: MIC): 3.12 µg/mL (≈ 5.17 µM) | MIC (Mycobacterium 607; read-out: MIC): 1.56 µg/mL (≈ 2.58 µM) | MIC (Proteus rettgeri GN 311; read-out: MIC): 0.39 µg/mL (≈ 0.646 µM) | MIC (Providencia sp. Pv 16; SP.PV16, pH 7, read-out: MIC): 1.56 µg/mL (≈ 2.58 µM) | MIC ([5]; A3, pH 7, read-out: MIC): 0.78 µg/mL (≈ 1.29 µM) | MIC [6]: 25 µg/mL (≈ 41.4 µM) | MIC (Serratia marcescens; pH 7, read-out: MIC): 3.12 µg/mL (≈ 5.17 µM) | MIC ([7]; pH 7, read-out: MIC): 1.56 µg/mL (≈ 2.58 µM) | MIC ([8]; AP01, pH 7, read-out: MIC): 6.25 µg/mL (≈ 10.4 µM) | MIC (Escherichia coli K-12 R5): 12.5 µg/mL (≈ 20.7 µM) | MIC ([9]; JR66/W677, pH 7, read-out: MIC): 1.56 µg/mL (≈ 2.58 µM) | MIC [9, 11]: 6.25 µg/mL (≈ 10.4 µM) | MIC ([10]; TI13, pH 7, read-out: MIC): 3.12 µg/mL (≈ 5.17 µM) | MIC [10, 12]: 3.12 µg/mL (≈ 5.17 µM)

NC[C@@H](F)[C@H](O)C(=O)N[C@@H]1C[C@H](N)[C@@H](O[C@H]2O[C@H](CN)[C@@H](O)C[C@H]2F)[C@H](O)[C@H]1O[C@H]1O[C@H](CO)[C@@H](O)[C@H](N)[C@H]1O [Invention Compound No. 3, 1-N-{(2R,3R)-4-Amino-3-fluoro-2-hydroxybutyryl}-2',3'-dideoxy-2'-fluorokanamycin A]
MIC (Bacillus subtilis PCI219; PCI219, pH 7, read-out: MIC): 0.39 µg/mL (≈ 0.661 µM) | MIC ([1]; read-out: MIC): 0.78 µg/mL (≈ 1.32 µM) | MIC (Escherichia coli JR 225): 0.39 µg/mL (≈ 0.661 µM) | MIC [2]: 0.78 µg/mL (≈ 1.32 µM) | MIC ([3]; K12ML1629, pH 7, read-out: MIC): 0.39 µg/mL (≈ 0.661 µM) | MIC (Escherichia coli K-12): 0.2 µg/mL (≈ 0.339 µM) | MIC ([4]; pH 7, read-out: MIC): 0.78 µg/mL (≈ 1.32 µM) | MIC (Mycobacterium 607; read-out: MIC): 0.78 µg/mL (≈ 1.32 µM) | MIC (Proteus rettgeri GN 311; read-out: MIC): 0.78 µg/mL (≈ 1.32 µM) | MIC (Providencia sp. Pv 16; SP.PV16, pH 7, read-out: MIC): 0.78 µg/mL (≈ 1.32 µM) | MIC ([5]; A3, pH 7, read-out: MIC): 0.78 µg/mL (≈ 1.32 µM) | MIC [6]: 12.5 µg/mL (≈ 21.2 µM) | MIC (Serratia marcescens; pH 7, read-out: MIC): 1.56 µg/mL (≈ 2.65 µM) | MIC ([7]; pH 7, read-out: MIC): 0.78 µg/mL (≈ 1.32 µM) | MIC ([8]; AP01, pH 7, read-out: MIC): 1.56 µg/mL (≈ 2.65 µM) | MIC (Escherichia coli K-12 R5): 6.25 µg/mL (≈ 10.6 µM) | MIC ([9]; JR66/W677, pH 7, read-out: MIC): 0.78 µg/mL (≈ 1.32 µM) | MIC [9, 11]: 1.56 µg/mL (≈ 2.65 µM) | MIC ([10]; TI13, pH 7, read-out: MIC): 3.12 µg/mL (≈ 5.29 µM) | MIC [10, 12]: 3.12 µg/mL (≈ 5.29 µM)
